Assay results from PubChem BioAssay (NCI).
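All cell lines were grown in 96-well plates and treated with compound for 48 hours. At the TGI there is no net growth.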

How the values were obtained:
Assay in all cases: DTP human tumour cell line panel, 48 h
KM12 colon = system: KM12 colon
BT-549 breast = system: BT-549 breast
HCC-2998 colon = system: HCC-2998 colon
SN12C renal = system: SN12C renal
CAKI-1 renal = system: CAKI-1 renal
TK-10 renal = system: TK-10 renal
K-562 leukemia = system: K-562 leukemia
OVCAR-3 ovarian = system: OVCAR-3 ovarian
MDA-N = system: MDA-N
SF-268 CNS = system: SF-268 CNS
MALME-3M melanoma = system: MALME-3M melanoma
SK-OV-3 ovarian = system: SK-OV-3 ovarian
NCI-H522 lung = system: NCI-H522 lung
MOLT-4 leukemia = system: MOLT-4 leukemia
SW-620 colon = system: SW-620 colon
EKVX NSCLC = system: EKVX NSCLC
U251 CNS = system: U251 CNS
HOP-62 NSCLC = system: HOP-62 NSCLC
COLO 205 colon = system: COLO 205 colon
SF-295 CNS = system: SF-295 CNS
LOX IMVI melanoma = system: LOX IMVI melanoma
SNB-75 CNS = system: SNB-75 CNS
HCT-116 colon = system: HCT-116 colon
SK-MEL-28 melanoma = system: SK-MEL-28 melanoma
IGROV1 ovarian = system: IGROV1 ovarian
SK-MEL-5 melanoma = system: SK-MEL-5 melanoma
HT29 colon = system: HT29 colon
SNB-19 CNS = system: SNB-19 CNS
UACC-257 melanoma = system: UACC-257 melanoma
HL-60(TB) leukemia = system: HL-60(TB) leukemia
MDA-MB-231 breast = system: MDA-MB-231 breast
OVCAR-4 ovarian = system: OVCAR-4 ovarian
NCI-H23 lung = system: NCI-H23 lung
PC-3 prostate = system: PC-3 prostate
UO-31 renal = system: UO-31 renal
OVCAR-8 ovarian = system: OVCAR-8 ovarian
CCRF-CEM leukemia = system: CCRF-CEM leukemia
HCT-15 colon = system: HCT-15 colon
A549 NSCLC = system: A549 NSCLC
HS 578T breast = system: HS 578T breast
NCI-H226 lung = system: NCI-H226 lung
MCF7 breast = system: MCF7 breast
M14 melanoma = system: M14 melanoma
NCI/ADR-RES ovarian = system: NCI/ADR-RES ovarian
RPMI-8226 leukemia = system: RPMI-8226 leukemia
OVCAR-5 ovarian = system: OVCAR-5 ovarian
HOP-92 NSCLC = system: HOP-92 NSCLC
RXF 393 renal = system: RXF 393 renal
T-47D breast = system: T-47D breast
MDA-MB-435 = system: MDA-MB-435
ACHN renal = system: ACHN renal
SF-539 CNS = system: SF-539 CNS
DU-145 prostate = system: DU-145 prostate
SK-MEL-2 melanoma = system: SK-MEL-2 melanoma
786-0 renal = system: 786-0 renal
NCI-H460 lung = system: NCI-H460 lung
SR leukemia = system: SR leukemia
UACC-62 melanoma = system: UACC-62 melanoma
A498 renal = system: A498 renal

In the case of `Nc1ccn(C2CCC(COP(=O)(O)OCC(O)COP(=O)(O)OCC3OC(n4cc(F)c(=O)[nH]c4=O)CC3O)O2)c(=O)n1` (configuration not stated), the TGI (KM12 colon) is reported as greater than 100 µM, the TGI (BT-549 breast) is reported as greater than 100 µM and the TGI (HCC-2998 colon) is reported as greater than 100 µM. For the same compound, the TGI (SN12C renal) was greater than 100 µM, the TGI (CAKI-1 renal) was greater than 100 µM and the TGI (TK-10 renal) was greater than 100 µM. It also gave a TGI (K-562 leukemia) greater than 100 µM, a TGI (OVCAR-3 ovarian) greater than 100 µM and a TGI (MDA-N) greater than 100 µM. For the same compound, the TGI (SF-268 CNS) was greater than 100 µM, the TGI (MALME-3M melanoma) was greater than 100 µM and the TGI (SK-OV-3 ovarian) was greater than 100 µM. It also gave a TGI (NCI-H522 lung) greater than 100 µM, a TGI (MOLT-4 leukemia) greater than 100 µM and a TGI (SW-620 colon) greater than 100 µM. For the same compound, the TGI (EKVX NSCLC) was greater than 100 µM, the TGI (U251 CNS) was greater than 100 µM and the TGI (HOP-62 NSCLC) was greater than 100 µM. The TGI (COLO 205 colon) was greater than 100 µM, the TGI (SF-295 CNS) was greater than 100 µM and the TGI (LOX IMVI melanoma) was greater than 100 µM. The TGI (SNB-75 CNS) was greater than 100 µM, the TGI (HCT-116 colon) was greater than 100 µM and the TGI (SK-MEL-28 melanoma) was greater than 100 µM. The TGI (IGROV1 ovarian) was greater than 100 µM, the TGI (SK-MEL-5 melanoma) was greater than 21 µM and the TGI (HT29 colon) was greater than 100 µM. For the same compound, the TGI (SNB-19 CNS) was greater than 100 µM, the TGI (UACC-257 melanoma) was greater than 100 µM and the TGI (HL-60(TB) leukemia) was greater than 100 µM. It also gave a TGI (MDA-MB-231 breast) greater than 100 µM, a TGI (OVCAR-4 ovarian) greater than 100 µM and a TGI (NCI-H23 lung) greater than 100 µM. For the same compound, the TGI (PC-3 prostate) was greater than 100 µM, the TGI (UO-31 renal) was greater than 100 µM and the TGI (OVCAR-8 ovarian) was greater than 100 µM. It also gave a TGI (CCRF-CEM leukemia) greater than 100 µM, a TGI (HCT-15 colon) greater than 100 µM and a TGI (A549 NSCLC) greater than 100 µM. The TGI (HS 578T breast) was greater than 100 µM, the TGI (NCI-H226 lung) was greater than 100 µM and the TGI (MCF7 breast) was greater than 100 µM. It also gave a TGI (M14 melanoma) greater than 100 µM, a TGI (NCI/ADR-RES ovarian) greater than 100 µM and a TGI (RPMI-8226 leukemia) greater than 100 µM. For the same compound, the TGI (OVCAR-5 ovarian) was greater than 100 µM, the TGI (HOP-92 NSCLC) was 4.59 µM and the TGI (RXF 393 renal) was greater than 100 µM. It also gave a TGI (T-47D breast) greater than 100 µM, a TGI (MDA-MB-435) greater than 100 µM and a TGI (ACHN renal) greater than 100 µM. The TGI (SF-539 CNS) was greater than 100 µM, the TGI (DU-145 prostate) was greater than 100 µM and the TGI (SK-MEL-2 melanoma) was greater than 100 µM. The TGI (786-0 renal) was greater than 100 µM and the TGI (NCI-H460 lung) was greater than 100 µM.
`CCN(C(=O)N[C@H](C(=O)N[C@@H](CSC)C(=O)N[C@@H](C)C(=O)OC)C(C)C)c1ccccc1` gave a TGI (KM12 colon) of 29.1 µM, a TGI (BT-549 breast) of 32.5 µM and a TGI (HCC-2998 colon) of 39.3 µM. It also gave a TGI (SN12C renal) of 43.1 µM, a TGI (CAKI-1 renal) of 36.3 µM and a TGI (TK-10 renal) of 26.4 µM. For the same compound, the TGI (K-562 leukemia) was greater than 100 µM, the TGI (OVCAR-3 ovarian) was 34.5 µM and the TGI (MDA-N) was 36.2 µM. For the same compound, the TGI (MALME-3M melanoma) was 26.6 µM, the TGI (SK-OV-3 ovarian) was 30.7 µM and the TGI (NCI-H522 lung) was 22.3 µM. It also gave a TGI (MOLT-4 leukemia) of 26.7 µM, a TGI (SW-620 colon) of 28 µM and a TGI (EKVX NSCLC) of 28.7 µM. The TGI (U251 CNS) was 29.4 µM, the TGI (HOP-62 NSCLC) was 36.4 µM and the TGI (COLO 205 colon) was 32.4 µM. It also gave a TGI (SF-295 CNS) of 36.7 µM, a TGI (LOX IMVI melanoma) of 23.5 µM and a TGI (SNB-75 CNS) of 27.8 µM. It also gave a TGI (HCT-116 colon) of 30.9 µM, a TGI (SK-MEL-28 melanoma) of 28.7 µM and a TGI (IGROV1 ovarian) of 23.9 µM. It also gave a TGI (SK-MEL-5 melanoma) of 30.8 µM, a TGI (HT29 colon) of 27.2 µM and a TGI (SNB-19 CNS) of 33.4 µM. It also gave a TGI (UACC-257 melanoma) of 25 µM, a TGI (SR leukemia) of 18.2 µM and a TGI (MDA-MB-231 breast) of 29 µM. The TGI (OVCAR-4 ovarian) was 47.4 µM, the TGI (NCI-H23 lung) was 33.4 µM and the TGI (UACC-62 melanoma) was 27 µM. For the same compound, the TGI (PC-3 prostate) was 31.6 µM, the TGI (UO-31 renal) was 31.3 µM and the TGI (OVCAR-8 ovarian) was 38.2 µM. The TGI (CCRF-CEM leukemia) was 19.3 µM, the TGI (HCT-15 colon) was 36.2 µM and the TGI (A549 NSCLC) was 55 µM. It also gave a TGI (NCI-H226 lung) of 31.8 µM, a TGI (MCF7 breast) of 31.8 µM and a TGI (M14 melanoma) of 28.7 µM. It also gave a TGI (NCI/ADR-RES ovarian) greater than 100 µM, a TGI (OVCAR-5 ovarian) of 29.5 µM and a TGI (HOP-92 NSCLC) of 26.3 µM. For the same compound, the TGI (RXF 393 renal) was 32.2 µM, the TGI (T-47D breast) was 76.3 µM and the TGI (MDA-MB-435) was 27.8 µM. For the same compound, the TGI (ACHN renal) was 28.9 µM, the TGI (SF-539 CNS) was 39.2 µM and the TGI (DU-145 prostate) was 31.2 µM. It also gave a TGI (SK-MEL-2 melanoma) of 37.8 µM, a TGI (786-0 renal) of 34.2 µM and a TGI (NCI-H460 lung) of 32.5 µM.
In the case of `O=c1c2c3c(sc2nc2n1NC=NN2)CCCC3`, the TGI (KM12 colon) is reported as 34.1 µM, the TGI (BT-549 breast) is reported as 31.8 µM and the TGI (HCC-2998 colon) is reported as 51.7 µM. It also gave a TGI (SN12C renal) of 39.6 µM, a TGI (CAKI-1 renal) of 33.8 µM and a TGI (TK-10 renal) greater than 56 µM. It also gave a TGI (K-562 leukemia) of 6.81 µM, a TGI (OVCAR-3 ovarian) of 30.5 µM and a TGI (MDA-N) of 30.9 µM. For the same compound, the TGI (SF-268 CNS) was 34.8 µM, the TGI (MALME-3M melanoma) was 55.3 µM and the TGI (SK-OV-3 ovarian) was greater than 65.5 µM. It also gave a TGI (NCI-H522 lung) of 36.4 µM, a TGI (MOLT-4 leukemia) of 31.7 µM and a TGI (SW-620 colon) of 38.7 µM. The TGI (EKVX NSCLC) was 35.9 µM, the TGI (U251 CNS) was 35 µM and the TGI (COLO 205 colon) was 55.3 µM. For the same compound, the TGI (SF-295 CNS) was 30.2 µM, the TGI (LOX IMVI melanoma) was 4.88 µM and the TGI (SNB-75 CNS) was 59.1 µM. It also gave a TGI (HCT-116 colon) of 32.4 µM, a TGI (SK-MEL-28 melanoma) of 36.1 µM and a TGI (IGROV1 ovarian) greater than 56.6 µM. For the same compound, the TGI (SK-MEL-5 melanoma) was 31.7 µM, the TGI (HT29 colon) was 38.9 µM and the TGI (SNB-19 CNS) was greater than 71.5 µM. For the same compound, the TGI (UACC-257 melanoma) was 41.9 µM, the TGI (HL-60(TB) leukemia) was 7.34 µM and the TGI (MDA-MB-231 breast) was 19.1 µM. For the same compound, the TGI (OVCAR-4 ovarian) was 34.1 µM, the TGI (NCI-H23 lung) was greater than 62.6 µM and the TGI (UACC-62 melanoma) was 35.8 µM. It also gave a TGI (PC-3 prostate) greater than 56.7 µM, a TGI (UO-31 renal) greater than 64.3 µM and a TGI (OVCAR-8 ovarian) of 58.2 µM. For the same compound, the TGI (CCRF-CEM leukemia) was 4.88 µM, the TGI (HCT-15 colon) was 37.5 µM and the TGI (A549 NSCLC) was greater than 100 µM. The TGI (HS 578T breast) was 52.7 µM, the TGI (NCI-H226 lung) was 49.8 µM and the TGI (MCF7 breast) was greater than 54.2 µM. The TGI (M14 melanoma) was greater than 57 µM, the TGI (NCI/ADR-RES ovarian) was 65.5 µM and the TGI (RPMI-8226 leukemia) was 50.6 µM. The TGI (OVCAR-5 ovarian) was 35.9 µM, the TGI (HOP-92 NSCLC) was 38.5 µM and the TGI (RXF 393 renal) was greater than 61.9 µM. It also gave a TGI (T-47D breast) greater than 65.8 µM, a TGI (MDA-MB-435) of 26.4 µM and a TGI (ACHN renal) of 30.3 µM. It also gave a TGI (SF-539 CNS) of 36.9 µM, a TGI (DU-145 prostate) greater than 90.4 µM and a TGI (SK-MEL-2 melanoma) greater than 66.6 µM. The TGI (786-0 renal) was 31.9 µM, the TGI (NCI-H460 lung) was 38.3 µM and the TGI (A498 renal) was greater than 89.4 µM.
